{
  "source": "paper PMC4467461",
  "about": "“Small-molecule activation of SERCA2a SUMOylation for the treatment of heart failure” (Nature Communications, 2015)",
  "tested_on": "TAC mice",
  "assay": "Dobutamine contractile response in TAC and sham mice",
  "format": "in vivo",
  "settings": "TAC versus sham mice, 3, 6, 10 ng/BW g",
  "experimental": "TAC mice and sham control. n = 5 (TAC) and n = 3 (sham operated). LVIDd, LV internal diameter during diastole; LVIDs, LV internal diameter during systole; FS, fractional shortening; EF, ejection fraction. (e) SERCA2a protein levels were detected by Western blot analysis. 15 µg of tissue extracts was separated on 7.5% SDS-PAGE gels, transferred to nitrocellulose membrane and blotted with anti-SERCA2a antibody. Band intensity was quantified by Image J software. The amount of GAPDH was used as a normalization control. (f) Dobutamine was infused to test contractile response to β-agonist stimulation in TAC and sham operated animals.\nLV pressure rise rate (+dP/dt max) was measured in response to different dose of dobutamine stimulation. Dose-dependent dobutamine response was blunted in TAC animals. n = 3 mice per each dose. Data are represented as mean ± SEM. * p < 0.05 versus baseline (Student’s t-test).",
  "data": [
    {"compound": "CC(CCc1ccc(O)cc1)NCCc1ccc(O)c(O)c1", "note": "(centres unmarked) [dobutamine]", "values": [
      {"measurement": "contractile / chronotropic response (+dP/dt max) to dobutamine", "value": "significantly abrogated"},
      {"measurement": "contractile / chronotropic response (+dP/dt max) to dobutamine", "setting": "listed as Dobutamine", "value": "blunted"}
    ]}
  ]
}
